Values quoted from earlier work in patent US8865753B2, “Compounds as cannabinoid receptor ligands” (priority 2007, dated 2014).

Tests used:
animal models = animal models of acute thermal pain, persistent pain, inflammatory pain and neuropathic pain
rodent = rodent models of neuropathic, incisional, and both chronic and acute inflammatory pain
rat = rat formalin model of persistent pain; Hanus et al. 1999
microglial = conditions: in vitro; Ramirez et al. 2005
[1] = system: apolipoprotein E knockout mice; conditions: Steffens et al. 2005
osteoclast = conditions: Ralston et al. 2005
mice = conditions: model for post-menopausal osteoporosis, Ralston et al. 2005

With `CN1CCCCC1Cn1cc(C(=O)c2cc([N+](=O)[O-])ccc2I)c2ccccc21` (stereo not drawn) [AM-1241] as the compound, how does the analgesic efficacy (animal models) read?
The analgesic efficacy was “robust analgesic efficacy”.

Which “efficacy in pain models” value (rodent) does the source give for `COc1ccc2c(c1)c(CCN1CCOCC1)c(C)n2C(=O)c1cccc(Cl)c1Cl` [GW405833] here?
Its value is “efficacious”.

Which antinociceptive response (rat) does the source give for `CCCCCCC(C)(C)c1cc(OC)c([C@@H]2C=C(CO)[C@@H]3C[C@H]2C3(C)C)c(OC)c1` [HU-308] here?
The antinociceptive response was “elicits an antinociceptive response”.

For `CCCC(C)(C)c1ccc2c(c1)OC(C)(C)[C@@H]1CC=C(C)C[C@@H]21` [JWH-133], which “β-amyloid-induced microglial activation and neurotoxicity” value (microglial) is on record?
Its value is “abrogated”.

For (−)-Δ^9-Tetrahydrocannabinol [THC], which “progression of atherosclerotic lesions” value ([1]; low doses) is on record?
The value was “slowed the progression of atherosclerotic lesions”.

For SR144528, which osteoclast activity (osteoclast) is on record?
Its osteoclast activity is “inhibit osteoclast activity”.

What about the ovariectomy-induced bone loss (mice) of the same compound?
Its ovariectomy-induced bone loss is “reverse ovariectomy-induced bone loss”.

What about the “blockade of the effects of JWH-133” value (microglial) of the same compound?
The value was “blocked”.

What about the “inhibition of the effects of THC on atherosclerotic lesions” value [1] of the same compound?
Its value is “inhibited”.
